# In ChEMBL document CHEMBL6103556, “Design and evaluation of anaplastic lymphoma kinase degraders using a covalent fumarate handle” (Bioorg Med Chem Lett, 2025):
# What was measured:
# NCI-H3122 [1] = test: cells; conditions: Homo sapiens, NCI-H3122, 72 h
# Description: Antiproliferative activity against human NCI-H3122 cells expressing EML4-ALK fusion assessed as cell growth inhibition incubated for 72 hrs by CellTiter-Glo assay
# NCI-H3122 [2] = test: Antiproliferative activity against human NCI-H3122 cells transfected with siRNF126 assessed as cell growth inhibition measured after 72 hrs by CellTiter-Glo assay; type: functional
# NCI-H3122 [3] = test: Induction of EML4-ALK degradation in human NCI-H3122 cells assessed as reduction in ALK level by measuring fold change at 100 nM measured after 24 hrs by Western blot analysis (reference value: […]); type: cell-based
# [4] = target: T1, Proto-oncogene tyrosine-protein kinase ROS (Homo sapiens, UniProt P08922); test: Inhibition of ROS (unknown origin) at 1 uM by Eurofins kinase profiler method relative to control
# [5] = target: Epidermal growth factor receptor (Homo sapiens, UniProt P00533, L858R); test: Inhibition of EGFR L858R (unknown origin) by Eurofins kinase profiler method
# [6] = target: Insulin receptor (Homo sapiens) (UniProt P06213); test: Inhibition of IR (unknown origin) at 1 uM by Eurofins kinase profiler method relative to control
# [7] = target: Insulin-like growth factor 1 receptor (Homo sapiens) (UniProt P08069); test: Inhibition of IGF-1R (unknown origin) at 1 uM by Eurofins kinase profiler method relative to control
# [8] = tested on: Epidermal growth factor receptor (Homo sapiens), P00533 [L858R]; test: Inhibition of EGFR L858R (unknown origin) at 1 uM by Eurofins kinase profiler method relative to control
# [9] = target: T1, Proto-oncogene tyrosine-protein kinase ROS; test: Inhibition of ROS (unknown origin) by Eurofins kinase profiler method
# T1 sequence (P08922 whole entry): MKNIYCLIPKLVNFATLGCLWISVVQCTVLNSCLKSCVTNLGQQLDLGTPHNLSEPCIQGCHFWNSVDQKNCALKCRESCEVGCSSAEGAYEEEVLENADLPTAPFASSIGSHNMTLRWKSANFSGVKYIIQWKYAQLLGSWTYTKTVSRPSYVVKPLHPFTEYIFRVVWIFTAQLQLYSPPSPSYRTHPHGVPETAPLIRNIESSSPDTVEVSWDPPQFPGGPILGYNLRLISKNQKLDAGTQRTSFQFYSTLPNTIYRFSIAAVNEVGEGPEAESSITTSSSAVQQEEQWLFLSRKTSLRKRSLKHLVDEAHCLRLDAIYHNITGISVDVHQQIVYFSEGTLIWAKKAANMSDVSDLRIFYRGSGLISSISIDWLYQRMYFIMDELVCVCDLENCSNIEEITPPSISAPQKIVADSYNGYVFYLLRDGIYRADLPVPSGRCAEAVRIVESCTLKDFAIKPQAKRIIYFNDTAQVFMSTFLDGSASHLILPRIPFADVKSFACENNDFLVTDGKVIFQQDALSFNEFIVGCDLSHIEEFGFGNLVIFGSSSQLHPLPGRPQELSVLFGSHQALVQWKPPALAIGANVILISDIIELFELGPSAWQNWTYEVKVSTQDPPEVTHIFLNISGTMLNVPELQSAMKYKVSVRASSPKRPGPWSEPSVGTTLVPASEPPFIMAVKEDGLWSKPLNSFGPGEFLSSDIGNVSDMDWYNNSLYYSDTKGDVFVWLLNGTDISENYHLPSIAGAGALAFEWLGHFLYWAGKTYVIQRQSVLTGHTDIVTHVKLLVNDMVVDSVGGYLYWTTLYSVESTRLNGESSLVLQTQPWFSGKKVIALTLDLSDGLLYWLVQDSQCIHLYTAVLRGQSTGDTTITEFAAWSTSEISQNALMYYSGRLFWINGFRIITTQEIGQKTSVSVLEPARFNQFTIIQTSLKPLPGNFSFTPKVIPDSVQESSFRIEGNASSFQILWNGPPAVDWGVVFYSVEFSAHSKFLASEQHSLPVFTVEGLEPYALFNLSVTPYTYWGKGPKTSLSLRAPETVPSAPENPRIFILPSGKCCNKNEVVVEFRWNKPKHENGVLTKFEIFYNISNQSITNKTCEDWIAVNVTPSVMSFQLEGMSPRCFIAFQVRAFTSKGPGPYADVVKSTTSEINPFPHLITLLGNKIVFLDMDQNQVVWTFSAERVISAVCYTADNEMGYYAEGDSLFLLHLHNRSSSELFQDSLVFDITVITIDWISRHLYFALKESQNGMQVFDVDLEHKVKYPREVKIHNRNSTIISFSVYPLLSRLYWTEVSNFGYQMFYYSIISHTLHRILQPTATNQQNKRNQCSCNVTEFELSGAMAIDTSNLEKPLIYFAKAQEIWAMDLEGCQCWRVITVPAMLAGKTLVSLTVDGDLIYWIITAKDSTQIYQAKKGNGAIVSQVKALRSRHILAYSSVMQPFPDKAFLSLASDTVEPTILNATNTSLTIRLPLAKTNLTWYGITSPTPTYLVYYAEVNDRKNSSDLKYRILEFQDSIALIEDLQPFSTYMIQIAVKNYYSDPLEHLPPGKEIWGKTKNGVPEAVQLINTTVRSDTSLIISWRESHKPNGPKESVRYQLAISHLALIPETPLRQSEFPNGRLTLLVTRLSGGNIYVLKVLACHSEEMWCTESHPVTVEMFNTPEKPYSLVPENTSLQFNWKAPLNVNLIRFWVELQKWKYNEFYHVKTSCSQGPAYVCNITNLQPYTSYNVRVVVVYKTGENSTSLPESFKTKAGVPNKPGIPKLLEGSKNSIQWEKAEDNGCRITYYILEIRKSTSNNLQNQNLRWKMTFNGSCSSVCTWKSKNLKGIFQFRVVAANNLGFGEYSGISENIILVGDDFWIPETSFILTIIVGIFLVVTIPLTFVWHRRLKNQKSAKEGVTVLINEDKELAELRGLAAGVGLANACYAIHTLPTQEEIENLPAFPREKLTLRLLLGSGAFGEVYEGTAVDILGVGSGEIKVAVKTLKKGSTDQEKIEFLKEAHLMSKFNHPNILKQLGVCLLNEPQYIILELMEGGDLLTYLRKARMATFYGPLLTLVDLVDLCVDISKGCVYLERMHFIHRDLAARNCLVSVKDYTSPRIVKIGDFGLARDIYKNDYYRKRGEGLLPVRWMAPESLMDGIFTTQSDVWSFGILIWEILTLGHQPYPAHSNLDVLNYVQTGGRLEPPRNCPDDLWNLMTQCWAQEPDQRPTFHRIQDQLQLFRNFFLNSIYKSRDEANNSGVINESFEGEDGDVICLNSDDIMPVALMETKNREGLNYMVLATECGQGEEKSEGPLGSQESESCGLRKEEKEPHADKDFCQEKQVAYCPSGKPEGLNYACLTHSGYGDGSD
# Epidermal growth factor receptor, sequence (P00533 25-1210 L858R limits assumed): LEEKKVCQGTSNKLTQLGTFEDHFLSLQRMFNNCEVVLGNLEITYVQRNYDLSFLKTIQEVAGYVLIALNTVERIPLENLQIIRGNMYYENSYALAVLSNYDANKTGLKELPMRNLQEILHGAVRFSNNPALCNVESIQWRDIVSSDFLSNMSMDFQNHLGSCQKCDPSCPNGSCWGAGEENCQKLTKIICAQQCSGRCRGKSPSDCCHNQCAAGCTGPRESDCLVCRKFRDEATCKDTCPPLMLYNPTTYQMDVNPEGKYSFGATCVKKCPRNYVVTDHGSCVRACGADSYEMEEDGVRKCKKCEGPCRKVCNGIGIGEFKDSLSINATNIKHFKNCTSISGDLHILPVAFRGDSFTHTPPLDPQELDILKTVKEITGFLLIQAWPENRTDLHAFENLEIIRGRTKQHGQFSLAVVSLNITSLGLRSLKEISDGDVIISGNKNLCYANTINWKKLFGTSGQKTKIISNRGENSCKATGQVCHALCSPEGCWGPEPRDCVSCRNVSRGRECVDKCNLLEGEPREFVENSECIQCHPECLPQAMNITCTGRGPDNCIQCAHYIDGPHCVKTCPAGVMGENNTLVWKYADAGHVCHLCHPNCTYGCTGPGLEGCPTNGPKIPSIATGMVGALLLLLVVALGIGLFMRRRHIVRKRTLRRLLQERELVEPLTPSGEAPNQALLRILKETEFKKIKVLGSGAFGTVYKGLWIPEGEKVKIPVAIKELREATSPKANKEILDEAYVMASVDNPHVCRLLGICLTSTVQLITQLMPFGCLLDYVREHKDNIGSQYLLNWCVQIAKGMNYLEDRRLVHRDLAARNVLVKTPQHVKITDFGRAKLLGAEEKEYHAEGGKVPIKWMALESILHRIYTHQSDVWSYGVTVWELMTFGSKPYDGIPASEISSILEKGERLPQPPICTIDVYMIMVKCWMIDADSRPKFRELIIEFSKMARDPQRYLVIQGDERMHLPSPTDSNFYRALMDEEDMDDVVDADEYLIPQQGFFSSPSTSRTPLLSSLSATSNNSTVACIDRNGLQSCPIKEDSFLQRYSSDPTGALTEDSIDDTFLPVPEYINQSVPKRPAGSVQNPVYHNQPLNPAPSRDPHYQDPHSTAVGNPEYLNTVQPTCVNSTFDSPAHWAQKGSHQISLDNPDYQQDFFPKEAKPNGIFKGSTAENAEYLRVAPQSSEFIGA
# Epidermal growth factor receptor (Homo sapiens), P00533 [L858R], sequence (P00533 whole entry L858R): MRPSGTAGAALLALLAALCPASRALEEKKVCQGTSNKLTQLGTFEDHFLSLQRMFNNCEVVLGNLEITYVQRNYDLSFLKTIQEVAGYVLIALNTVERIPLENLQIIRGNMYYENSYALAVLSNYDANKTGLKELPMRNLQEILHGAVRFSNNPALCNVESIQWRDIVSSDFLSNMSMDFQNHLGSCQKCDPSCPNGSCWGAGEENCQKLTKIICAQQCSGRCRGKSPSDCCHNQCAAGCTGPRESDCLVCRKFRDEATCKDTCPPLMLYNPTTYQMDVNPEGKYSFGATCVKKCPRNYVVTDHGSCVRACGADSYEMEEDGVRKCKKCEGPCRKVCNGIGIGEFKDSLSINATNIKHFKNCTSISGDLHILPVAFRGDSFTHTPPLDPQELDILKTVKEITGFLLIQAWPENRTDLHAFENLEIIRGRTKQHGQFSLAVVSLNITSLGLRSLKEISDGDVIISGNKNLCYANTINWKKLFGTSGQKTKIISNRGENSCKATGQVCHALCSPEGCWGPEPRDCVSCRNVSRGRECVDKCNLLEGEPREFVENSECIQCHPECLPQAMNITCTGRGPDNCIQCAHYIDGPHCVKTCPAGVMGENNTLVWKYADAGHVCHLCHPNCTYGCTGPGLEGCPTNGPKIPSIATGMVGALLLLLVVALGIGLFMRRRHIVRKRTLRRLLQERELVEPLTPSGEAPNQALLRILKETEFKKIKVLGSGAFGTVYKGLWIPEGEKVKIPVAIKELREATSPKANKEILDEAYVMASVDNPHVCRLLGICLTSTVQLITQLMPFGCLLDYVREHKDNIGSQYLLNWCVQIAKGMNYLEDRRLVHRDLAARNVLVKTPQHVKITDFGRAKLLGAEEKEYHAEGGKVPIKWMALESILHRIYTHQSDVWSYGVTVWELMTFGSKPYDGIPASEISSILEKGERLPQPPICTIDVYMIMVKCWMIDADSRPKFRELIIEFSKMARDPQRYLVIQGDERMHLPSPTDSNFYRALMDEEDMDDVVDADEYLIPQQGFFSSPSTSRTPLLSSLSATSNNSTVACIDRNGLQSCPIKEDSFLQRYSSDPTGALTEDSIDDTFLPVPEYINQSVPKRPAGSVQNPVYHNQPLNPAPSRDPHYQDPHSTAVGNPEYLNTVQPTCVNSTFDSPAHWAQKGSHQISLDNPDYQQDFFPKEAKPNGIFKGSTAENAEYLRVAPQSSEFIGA
GI50 (NCI-H3122 [1]),SMILES,further results
88 nM,CCc1cc2c(cc1N1CCC(N3CCN(C(=O)/C=C/C(=O)c4ccc(OC)cc4)CC3)CC1)C(C)(C)c1[nH]c3cc(C#N)ccc3c1C2=O,–
35 nM,COc1cc(N2CCC(N3CCN(C)CC3)CC2)ccc1Nc1ncc(Cl)c(Nc2ccccc2P(C)(C)=O)n1 [BRIGATINIB],GI50 (NCI-H3122 [2]): 43 nM
209 nM,COc1ccc(C(=O)/C=C/C(=O)N2CCC(c3cc(OC(C)C)c(Nc4ncc(Cl)c(Nc5ccccc5S(=O)(=O)C(C)C)n4)cc3C)CC2)cc1,–
–,CC(C)C[C@H](NC(=O)[C@H](Cc1ccccc1)NC(=O)c1cnccn1)B(O)O,fold change (FC) (NCI-H3122 [3]): 1
747 nM,COc1ccc(C(=O)CCC(=O)N2CCC(c3cc(OC(C)C)c(Nc4ncc(Cl)c(Nc5ccccc5S(=O)(=O)C(C)C)n4)cc3C)CC2)cc1,–
56 nM,COc1ccc(C(=O)/C=C/C(=O)N2CCC(n3cc(-c4cnc(N)c(O[C@H](C)c5c(Cl)ccc(F)c5Cl)c4)cn3)CC2)cc1,–
23 nM,CCc1cc2c(cc1N1CCC(N3CCOCC3)CC1)C(C)(C)c1[nH]c3cc(C#N)ccc3c1C2=O [ALECTINIB],–
1100 nM,COc1ccc(C(=O)CCC(=O)N2CCC(n3cc(-c4cnc(N)c(O[C@H](C)c5c(Cl)ccc(F)c5Cl)c4)cn3)CC2)cc1,–
66 nM,COc1ccc(C(=O)CCC(=O)N2CCN(C3CCN(c4ccc(Nc5ncc(Cl)c(Nc6ccccc6P(C)(C)=O)n5)c(OC)c4)CC3)CC2)cc1,GI50 (NCI-H3122 [2]): 111 nM
2 nM,COc1ccc(C(=O)/C=C/C(=O)N2CCN(C3CCN(c4ccc(Nc5ncc(Cl)c(Nc6ccccc6P(C)(C)=O)n5)c(OC)c4)CC3)CC2)cc1,inhibition [4]: 73%; IC50 [5]: 97.1 nM; inhibition [6]: 48%; inhibition [7]: 44%; inhibition [8]: 82%; GI50 (NCI-H3122 [2]): 2 nM; IC50 [9]: 185 nM
> 5000 nM,CCc1cc2c(cc1N1CCC(N3CCN(C(=O)CCC(=O)c4ccc(OC)cc4)CC3)CC1)C(C)(C)c1[nH]c3cc(C#N)ccc3c1C2=O,–
23 nM,Cc1cc(Nc2ncc(Cl)c(Nc3ccccc3S(=O)(=O)C(C)C)n2)c(OC(C)C)cc1C1CCNCC1 [CERITINIB],–
